How the values were obtained:
[1] = system: sclerostin‐knockout macrophages (RAW264.7); test: Effect of ApoER2‐LA7 on LPS‐induced cytokine mRNA in sclerostin‐knockout macrophages (RAW264.7); format: cell-based, mouse; conditions: sclerostin‐knockout RAW264.7, after LPS induction, n = 3; Figure S7C
[2] = system: sclerostin loop2‐ApoER2 interaction; test: BLI blockade of ApoER2 - sclerostin loop2 binding by pretreatment with ApoER2‐Pep; conditions: His‐ApoER2 on HIS1K biosensors, sclerostin loop2 pretreated with ApoER2‐Pep, Figure 6F, listed as ApoER2‐LA7
Protocol: Biolayer interferometry (BLI) analysis was performed on the Biomolecular Interaction Analyzer (ForteBio, Octet RED96e). To determine the binding affinity between ApoER2 and sclerostin, the ApoER2 protein (R&D, 3520‐AR) was biotinylated using 10 mM EZ‐Link Sulfo‐NHS‐LC‐LC‐Biotin (Thermo Scientific, 21 343) in a molar ratio of 1:20 for 2 h at 4 °C. The Slide‐A‐Lyzer Dialysis Cassettes (Thermo Scientific, 66 382) were used for excess biotin removal.^[ [61] ^] […] (SA) tray biosensors (Sartorius, 18‐5019) were used to load biotin‐ApoER2 proteins. Biosensors were pre‐wet for 10 min using 200 µL PBS containing 0.02% Tween 20 (v/v) in a 96‐well plate. To determine the binding affinity between sclerostin loop2 and ApoER2‐LA7, anti‐penta‐HIS (HIS1K) biosensors (Sartorius, 18‐5102) were used to load His‐sclerostin loop2, the sclerostin loop2‐loaded biosensors were immersed in the ApoER2‐LA7 with different concentrations. […] Raw data were analyzed using Data Analysis Software (ForteBio, v8.1). All Kd values were calculated after deducting the non‐specific binding between the biosensors and the samples.^[ [62], [63] ^]
Target sequence in this assay (Q99P68 107-132 limits assumed): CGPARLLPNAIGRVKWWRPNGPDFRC

[3] = system: sclerostin loop2‐ApoER2 interaction; test: ApoER2‐Pep blockade of sclerostin effects in ApoER2 overexpressing, LPS‐induced RAW 264.7 macrophages; format: cell-based, mouse
Protocol: In ApoER2‐Pep‐mediated structure‐function studies in vitro, RAW 264.7 cells were divided into 4 groups (n = 3 per group), including (1) Control, (2) LPS, (3) Lrp8 + LPS + SOST, and (4) Lrp8 + LPS + SOST + ApoER2‐Pep. Cells in groups (3) and (4) were transfected with Lrp8 plasmids encoding ApoER2, while cells in groups (1) and (2) were kept untreated. 24 h later, cells in group (3) were treated with recombinant sclerostin (SOST, 1 µM), while cells in group (4) were treated with recombinant sclerostin (1 µM) and ApoER2‐Pep (2 µM) for 3 h. Then, cells in groups (2), (3), and (4) were treated with LPS (1 µg/mL) for 18 h. All groups of cells were collected for determining the mRNA expression levels of TNF‐α, MCP‐1, and IL‐10 by RT‐PCR. Cell mediums were collected for determining the protein expression/secretion levels of mouse TNF‐α, mouse MCP‐1, and mouse IL‐10 by ELISA.
Total RNA was extracted from cells following the protocols of Trizol reagent (Invitrogen, 15 596 026). Reverse‐transcription was performed to obtain cDNA using HiScript III RT SuperMix kit (Vazyme, R323), and RT‐PCR was accomplished using a HiScript III RT SuperMix kit (Vazyme, R323) in a QuantStudio 7 PRO System (Applied Biosystems). The relative gene expression levels were calculated using the 2^−ΔΔCt method with GAPDH as the reference gene.^[ [40] ^] The primers were as follows: mouse GAPDH (F: […], R: GGGGTCGTTGATGGCAAC), mouse NF‐κB (p65, F: […], R: […]), mouse TNF‐α (F: […], R: […]), mouse MCP‐1 (F: […], R: […]), mouse IL‐10 (F: […], R: […]), human GAPDH (F: […], R: […]), human TNF‐α (F: […], R: […]), human MCP‐1 (F: […], R: […]) and human IL‐10 (F: […], R: […]).

SOST^ki.ApoE^−/− mice = test: Aortic aneurysm, atherosclerosis and inflammatory responses in SOST^ki.ApoE^−/− mice with AngII infusion; format: in vivo, mouse; conditions: 10 mg/kg/day subcutaneous, four weeks, versus veh and Rseq‐Pep groups, n = 12
Protocol: (§1) Aortic aneurysm (AA), atherosclerosis, and inflammatory responses were induced in ApoE^−/− mice with AngII infusion as previously described.^[ [15] ^] In brief, osmotic minipumps (Model 1004, ALZET, Durect Corporation) were implanted into the subcutaneous space along the dorsal midline under anaesthesia on the right flank via an incision in the scapular region to deliver 1000 ng/kg/min of AngII (A9525, Sigma‐Aldrich) or vehicle in 3‐month‐old mice for four weeks.^[ [68] ^]
For AA evaluation, the aortas were perfused via the left ventricle with ice‐cold EDTA buffer (1 mM) and saline immediately after sacrifice. The aortas were then isolated from the fat and connective tissues under a Zeiss Stemi 305 stereomicroscope and then fixed in 4% PFA. The aorta with or without aneurysm formation was defined according to Daugherty's modified classification.^[ [45] ^] The incidence of AA was determined as follows: mouse number with aortic aneurysm/group mice*100%. The maximum ex vivo diameters of the aortic arch and suprarenal aorta were determined by ImageJ software. For atherosclerosis assessment, atherosclerotic plaque was quantified by measuring the surface area of the Oil Red O‐positive lesions on en face preparation of aortic arches.^[ [14] ^] Briefly, aortic arches were cut longitudinally and immersed in Oil Red O dye solution, followed by being rinsed with 75% ethanol. The ratio of atherosclerotic plaque area to total aortic arch area was quantified by colorimetric analysis using Image J software.^[ [13] ^]
(§2) The serum levels of sclerostin were detected using the sclerostin ELISA kits (R&D, DSST00; Cloud‐Clone, SEC864Mu) in triplicate following the manufacturer's instructions.^[ [14] ^] The serum levels of pro‐inflammatory cytokine and chemokine were measured using TNF‐α ELISA kit (Thermo Fisher BMS607‐3) and MCP‐1 ELISA kit (Thermo Fisher, BMS6005) in triplicate following manufacturer's instructions.^[ [15], [45] ^] The serum levels of anti‐inflammatory cytokine were measured using IL‐10 ELISA kit (Jonlnbio JL20242‐96T) in triplicate following manufacturer's instructions.^[ [15], [45] ^]

sost^−/−.ApoE^−/− mice = test: Inflammatory responses in sost^−/−.ApoE^−/− mice with AngII infusion (absence of sclerostin); format: in vivo, mouse; conditions: 10 mg/kg, n = 6, Figure S12F
Protocol: as §1, §2
Figure S12. […] (A) Serum stability of the modified ApoER2-Pep. […] All tests were two-sided. n = 6 per group. Data were expressed as mean ± standard deviation.

[4] = LPS‐induced macrophages in vitro

“PCRENEFQCGDGTCVLAIKRCNQERDCPDGSDEAGCL [ApoER2‐Pep]” was tested, and the “mRNA expression levels of TNF‐α, MCP‐1 and IL‐10, with versus without the peptide” value [1] was “no significant differences”, the “Binding of ApoER2 to sclerostin loop2 after pretreatment with the peptide” value [2] was “blocked” and the “Effects of exogenous sclerostin on protein expression/secretion of TNF‐α, MCP‐1 and IL‐10 after pretreatment with the peptide” value ([3]; ApoER2‐Pep 2 µM + sclerostin 1 µM for 3 h, LPS 1 µg/mL 18 h, ELISA, n = 3) was “significantly attenuated”. For the same sequence, the “Effects of exogenous sclerostin on mRNA expression of TNF‐α, MCP‐1 and IL‐10 after pretreatment with the peptide” value ([3]; ApoER2‐Pep 2 µM + sclerostin 1 µM for 3 h, LPS 1 µg/mL 18 h, RT‐PCR, n = 3) was “significantly attenuated”, the “Reversal of the promotive effect of sclerostin on IL‐10 mRNA expression” value [3, 4] was “complete reversal” and the “Reversal of the suppressive effect of sclerostin on MCP‐1 mRNA expression” value [3, 4] was “complete reversal”. The “Reversal of the suppressive effect of sclerostin on TNF‐α mRNA expression” value [3, 4] was “partial reversal”, the “Serum level of IL‐10” value (SOST^ki.ApoE^−/− mice; ELISA) was “significantly lower” and the “Serum level of MCP‐1” value (SOST^ki.ApoE^−/− mice; ELISA) was “significantly higher”. For the same sequence, the “Serum level of TNF‐α” value (SOST^ki.ApoE^−/− mice; ELISA) was “significantly higher”, the AA incidence (SOST^ki.ApoE^−/− mice) was “significantly higher” and the “Maximum ex vivo diameters of aortic arches and suprarenal aortas” value (SOST^ki.ApoE^−/− mice) was “significantly higher”. For the same sequence, the “Ratio of atherosclerotic plaque in aortic arches” value (SOST^ki.ApoE^−/− mice) was “significantly higher” and the “Effect on inflammatory responses (serum TNF‐α, MCP‐1, IL‐10) in the absence of sclerostin” value (sost^−/−.ApoE^−/− mice) was “no effect”.

From paper PMC12884772, “Macrophagic Sclerostin Loop2‐ApoER2 Interaction Required by Sclerostin for Cardiovascular Protective Action” (Advanced Science, 2025)
